# According to publication PMC8401933 (Molecules, 2021):
# “Also recorded” adds a separate entry of the source.
# Key:
# [1] = system: Pparg and Cebpa genes in 3T3-L1 cells; experiment: qRT-PCR of adipogenic genes during differentiation; assay type: cell-based; conditions: 3T3-L1 during differentiation; KD025 5 μM, CX-4945 10 μM, Y-27632 10 μM
# Experimental: (§1) The preadipocyte 3T3-L1 cell line was kindly provided by Dr. Hyun-Sung Park (University of Seoul) and cultured in Dulbecco’s modified Eagle’s medium (DMEM, Sigma-Aldrich) supplied with 10% heat-inactivated newborn calf serum (Invitrogen, CA, USA), 100 units/mL penicillin, and 100 µg/mL streptomycin (Cellgro, VA, USA). The cells were maintained in an incubator at 37 °C and 5% CO2. To initiate differentiation, the cells were incubated for additional days after 100% confluence and then further incubated in a medium containing fetal bovine serum (FBS) and a differentiation cocktail (DMI, 1 μM dexamethasone, 0.5 mM 3-isobutyl-1-methylxanthine, and 5 μg/mL insulin) as previously described. In brief, at day 3, the culture medium was replaced with DMEM/10%FBS containing 5 µg/mL insulin. Then, growth medium was changed every 2 days.
# Total RNA was extracted using easy-BLUE (iNtRON Biotechnology, Dajeon, Korea) in accordance with the manufacturer’s protocol. cDNA was synthesized from 2 µg of total RNA using TOPscript^TM Drymix Kit (Enzynomics, Dajeon, Korea). qRT-PCR was performed using TB Green ® Premix Ex Taq^TM II (Tli RNAse H Plus) (TaKaRa, Japan) with Applied Biosystems QuantStudio™ 1 Real-Time PCR System (Thermo Fisher Scientific, Waltham, MA, USA). Gene expression data were normalized based on the use of the same amount of total RNA samples. The relative fold change of gene expression was calculated using the ∆Ct method.
# 3T3-L1 cells = experiment: Adipocyte differentiation, Oil Red O staining; assay type: cell-based; conditions: for lipid accumulation / adipocyte differentiation (ORO staining): 3T3-L1, treated during differentiation; for lipid accumulation / adipocyte differentiation (ORO staining) / adipogenesis (ORO staining): stained at day 8; for quantity of lipid droplets (ORO staining): CX-4945 5 μM, KD025 3 μM
# Experimental: as §1
# Lipid droplets of cells were stained using ORO (Sigma-Aldrich, MA, USA). In brief, the cells were washed with phosphate buffered saline and incubated with 10% formalin for 5 min. The cells were then fixed with the same volume of fresh formalin for at least 1 h. Subsequently, the cells were washed with 60% isopropanol, air dried completely, and then stained with ORO working solution (1% ORO/isopropanol: distilled water = 3:2). The stained cells were washed with water four times. Cell images were taken by a microscope (Nikon Eclipse TS100-F, Japan). Then, 100% isopropanol was added and incubated for 10 min to quantify the intensity of ORO. The quantity of extracted dye was obtained by obtaining absorbance at 540 nm in the Synergy H1 hybrid reader (BioTek, VT, USA).
# ROCK2 = ROCK2 (Homo sapiens, UniProt O75116); experiment: KINOMEscan Kd determination; conditions: 11-point concentrations, duplicate
# Sequence of ROCK2 (O75116 whole entry): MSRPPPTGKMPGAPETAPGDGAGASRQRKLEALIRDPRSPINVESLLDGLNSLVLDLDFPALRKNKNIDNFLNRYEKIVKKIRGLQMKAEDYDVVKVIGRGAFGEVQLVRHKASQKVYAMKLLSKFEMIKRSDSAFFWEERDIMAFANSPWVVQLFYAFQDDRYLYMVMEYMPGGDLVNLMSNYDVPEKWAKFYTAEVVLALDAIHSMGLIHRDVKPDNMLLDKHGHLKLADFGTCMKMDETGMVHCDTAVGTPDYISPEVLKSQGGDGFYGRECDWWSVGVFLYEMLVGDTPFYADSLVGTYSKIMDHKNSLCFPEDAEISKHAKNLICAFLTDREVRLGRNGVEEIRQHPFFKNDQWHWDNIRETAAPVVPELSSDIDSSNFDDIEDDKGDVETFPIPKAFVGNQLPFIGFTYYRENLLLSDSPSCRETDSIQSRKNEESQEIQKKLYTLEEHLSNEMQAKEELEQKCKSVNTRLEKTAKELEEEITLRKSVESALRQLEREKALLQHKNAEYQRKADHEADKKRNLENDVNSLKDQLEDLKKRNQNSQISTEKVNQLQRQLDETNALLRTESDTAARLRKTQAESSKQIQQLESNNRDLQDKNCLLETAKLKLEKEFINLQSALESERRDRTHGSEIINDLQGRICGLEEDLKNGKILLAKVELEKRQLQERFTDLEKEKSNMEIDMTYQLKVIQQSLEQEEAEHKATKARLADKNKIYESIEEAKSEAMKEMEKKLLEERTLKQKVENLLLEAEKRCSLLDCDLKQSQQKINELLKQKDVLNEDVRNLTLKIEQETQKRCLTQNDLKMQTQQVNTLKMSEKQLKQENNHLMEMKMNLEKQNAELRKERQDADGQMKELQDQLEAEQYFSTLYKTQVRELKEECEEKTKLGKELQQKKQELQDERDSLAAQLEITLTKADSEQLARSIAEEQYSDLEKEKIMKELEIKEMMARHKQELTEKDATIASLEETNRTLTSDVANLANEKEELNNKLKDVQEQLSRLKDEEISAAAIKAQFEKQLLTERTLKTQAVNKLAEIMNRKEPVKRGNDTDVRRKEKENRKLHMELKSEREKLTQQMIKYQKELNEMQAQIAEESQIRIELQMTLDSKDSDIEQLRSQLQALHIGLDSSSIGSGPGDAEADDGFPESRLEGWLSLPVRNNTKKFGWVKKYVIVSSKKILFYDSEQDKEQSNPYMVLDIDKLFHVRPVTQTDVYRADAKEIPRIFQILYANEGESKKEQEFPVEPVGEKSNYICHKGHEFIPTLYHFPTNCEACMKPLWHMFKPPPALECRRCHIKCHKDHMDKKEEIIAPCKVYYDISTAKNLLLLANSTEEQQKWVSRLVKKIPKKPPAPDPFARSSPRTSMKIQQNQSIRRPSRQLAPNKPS
# Experimental: Dissociation constant (Kd) was measured using KINOMEscan^TM profiling service. […] The binding activity of inhibitors was monitored by measuring remained kinase-ligand binding activity. Kd was calculated based on the nonlinear least-square fit model by using the “drm” function of drc package [54] in R software (version 3.6.1).
smiles,measurement,setting,value
C[C@@H](N)[C@H]1CC[C@H](C(=O)Nc2ccncc2)CC1 [Y-27632],expression of Pparg and Cebpa genes,[1],increased; also recorded: did not suppress
O=S(=O)(c1cccc2cnccc12)N1CCCNCC1 [fasudil],lipid accumulation / adipocyte differentiation (ORO staining),3T3-L1 cells,does not
same,lipid accumulation / adipocyte differentiation (ORO staining),3T3-L1 cells; listed as Fasudil,no significant effect
"O=C1c2ccc(O)c(O)c2C(=O)c2c(O)ccc(O)c21 [quinalizarin, 1,2,5,8-tetrahydroxyanthraquinone]",adipogenesis (ORO staining),"3T3-L1 cells; 3T3-L1, 5, 10, and 30 μM",suppressed adipogenesis
same,lipid accumulation / adipocyte differentiation (ORO staining),3T3-L1 cells,inhibited effectively
"CN(C)c1nc2c(Br)c(Br)c(Br)c(Br)c2[nH]1 [DMAT, 2-dimethylamino-4,5,6,7-tetrabromo-1H-benzimidazole]",adipogenesis (ORO staining),"3T3-L1 cells; 3T3-L1, 5 μM",promoting reversely the differentiation
same,adipogenesis (ORO staining),"3T3-L1 cells; 3T3-L1, 30 μM",inhibited the adipogenesis
same,lipid accumulation / adipocyte differentiation (ORO staining),3T3-L1 cells,inhibited effectively
O=C(O)c1ccc2c(c1)nc(Nc1cccc(Cl)c1)c1ccncc12 [CX-4945],expression of Pparg and Cebpa genes,[1],markedly suppressed
same,lipid accumulation / adipocyte differentiation (ORO staining),3T3-L1 cells,suppressed the generation of lipid droplets; also recorded: significantly reduced the amount of accumulated fat in a dose-dependent manner
same,quantity of lipid droplets (ORO staining),"3T3-L1 cells; 3T3-L1, treated during the early (days 0–1) or late (days 5–8) stage",ineffective; also recorded: lesser effect
same,quantity of lipid droplets (ORO staining),"3T3-L1 cells; 3T3-L1, treated during the intermediate stage (days 1–3)",acted specifically in the middle stage; also recorded: significantly reduced
same,Kd,ROCK2,no selective interaction; also recorded: did not show such cross-reactivity
